Measurements reported in US20250282726A1, “5-BROMO-2-HYDROXY-N'-[(1E)-1-(PYRIDIN-2-YL) ETHYLIDENE]BENZOHYDRAZIDE AS AN ANTI-CANCER AND ANTIMICROBIAL AGENT” (KING SAUD UNIVERSITY, priority 2024, published 2025).

Key:
Assay type in all cases: cell-based
Bacillus Megnaterium = assay: Antimicrobial study, diameter of inhibition zone; conditions: for Diameter of inhibition zones, B. megnaterium: Gram (+) bacteria
Protocol: (§1) Initially, compound L was tested against some Gram-negative and Gram-positive bacteria and the fungus strain.
(§2) Two gram-positive Staphylococcus aureus (cars-2) and Bacillus Megnaterium, two gram-negative Escherichia coli (carsgn-2) and Salmonella Typhi (JCM-1652) bacteria, and two fungal strains Trichoderma harzianum (carsm-2) and Aspergillus niger (carsm-3) were used in this study.

[1] = test system: Escherichia coli (carsgn-2); assay: Antimicrobial study, diameter of inhibition zone; conditions: for Diameter of inhibition zones, E. coli: Gram (−) bacteria
Protocol: as §1, §2

[2] = test system: Staphylococcus aureus (cars-2); assay: Antimicrobial study, diameter of inhibition zone; conditions: for Diameter of inhibition zones, S. aureus: Gram (+) bacteria
Protocol: as §1, §2

[3] = test system: Salmonella Typhi (JCM-1652); assay: Antimicrobial study, diameter of inhibition zone; conditions: for Diameter of inhibition zones, S. typhi: Gram (−) bacteria
Protocol: as §1, §2

[4] = test system: Trichoderma harzianum (carsm-2); assay: Antimicrobial study, diameter of inhibition zone; conditions: Fungi
From the text: as §2

[5] = test system: Aspergillus niger (carsm-3); assay: Antimicrobial study, diameter of inhibition zone; conditions: Fungi
From the text: as §2

lung cancer (A549) = assay: MTT in vitro cytotoxicity assay; conditions: Homo sapiens, lung cancer cells, MTT 72 h
Protocol: (§3) Two human cancer cell lines were utilized in the cytotoxicity assay. They were lung cancer (A549) and hepatocellular carcinoma (HepG2). A549 and HepG2 cells were cultured in a DMEM medium supplemented with 10% Fetal Bovine Serum (FBS), and 1% Antibiotic-Antimycotic at 37° C., with 5% CO2 in a 75 cm^2 tissue culture flask.
(§4) The conversion of yellow MTT to purple formazan crystals by mitochondrial dehydrogenase of viable cell enzymes was used to assess the magnitude of cellular cytotoxicity exerted by different concentrations of L as explained earlier Kazi et al. 2023 and modified by Kumar et al. 2022. Briefly, cancer cells were plated in 96-well plates (2×10^3 cells/well) in full cell growth medium and incubated for 24 h at 37° C. under a humidified atmosphere of 5% CO2. The cell medium was then replaced by a cell growth medium containing 5% FBS (DMEM medium), containing different concentrations of L. This experiment was performed in two batches. In the first batch, concentrations of L were 1.95, 3.9, 7.8, 15.6, 31.25, 62.5, 125 and 250 μg/ml with control (without any treatment). In the second batch, concentrations of L were 0.078, 0.156, 0.312, 0.625, 1.25, 2.5, 5.0, and 10.0 μg/mL with control (without any treatment). After 72 hours of incubation, medium in all test and control wells was substituted by 100 µL/well of MTT solution (0.5 mg/mL, in PBS) and incubated for a further 3 h at 37° C. Afterwards, the MTT solution was replaced with 100 μL isopropanol/well to dissolve the purple formazan crystals formed at the bottom of the wells, with shaking for at least 2 h at room temperature in dark. Subsequently, the color intensity in the wells was measured at 549 nm with a Bio-Tek microplate reader (ELX 800; Bio-Tek Instruments, Winooski, VT, USA). The results were analyzed in triplicates and the viability percentage was calculated. The data are presented as the percentages of viable cells in the test wells compared to those of the control group. The following equation was used to calculate the cell viability: […]
(§5) Liver and lung cancer cell lines were used to observe the antiproliferative effects of different concentrations of L as a growth-inhibiting study utilizing MTT-based viability assays. The MTT assay is based on mitochondrial activity. […] The results of both batches are admirable and far better than earlier reported publications. Therefore, we repeated this experiment with lung cancer cell lines and found almost similar results (FIGS. 9 and 10) as were with liver cancer cells.

[6] = test system: hepatocellular carcinoma (HepG2); assay: MTT in vitro cytotoxicity assay; conditions: Homo sapiens, read-out: % cell viability
Protocol: as §3, §4, §5

With `CO/N=C(\C(=O)N[C@@H]1C(=O)N2C(C(=O)O)=C(CSc3nc(=O)c(=O)[nH]n3C)CS[C@H]12)c1csc(N)n1` [Ceftriaxone, reference compound] the “Diameter of inhibition zones, B. megnaterium” value (Bacillus Megnaterium) was 50.0 mm, the “Diameter of inhibition zones, E. coli” value [1] was 38.0 mm and the “Diameter of inhibition zones, S. aureus” value [2] was 40.0 mm. The “Diameter of inhibition zones, S. typhi” value [3] was 44.0 mm.

With `C[C@@H]1[C@H](O)[C@@H](C)/C=C/C=C/C=C/C=C/C=C/C=C/C=C/[C@H](O[C@@H]2O[C@H](C)[C@@H](O)[C@H](N)[C@@H]2O)C[C@@H]2O[C@](O)(C[C@@H](O)C[C@@H](O)[C@H](O)CC[C@@H](O)C[C@@H](O)CC(=O)O[C@H]1C)C[C@H](O)[C@H]2C(=O)O` [Amphotericin-B, reference compound] the “Diameter of inhibition zones, T. harzianum” value [4] was 17.0 mm and the “Diameter of inhibition zones, A. niger” value [5] was 8.0 mm.

With `C/C(=N\NC(=O)c1cc(Br)ccc1O)c1ccccn1` [Compound L, 5-bromo-2-hydroxy-N′-[(1E)-1-(pyridin-2-yl)ethylidene]benzohydrazide] the “Diameter of inhibition zones, T. harzianum” value [4] was 12 mm, the “Diameter of inhibition zones, A. niger” value [5] was 12 mm and the “Diameter of inhibition zone” value (Bacillus Megnaterium; Bacillus Megaterium) was 20 mm. The “Diameter of inhibition zones, B. megnaterium” value (Bacillus Megnaterium) was 20 mm, the “Diameter of inhibition zone” value ([1]; Escherichia coli) was 17 mm and the “Diameter of inhibition zones, E. coli” value [1] was 17 mm. For the same compound, the “Diameter of inhibition zones, S. aureus” value [2] was 24 mm, the “Diameter of inhibition zone” value ([2]; Staphylococcus aureus) was 24 mm and the “Diameter of inhibition zones, S. typhi” value [3] was 26 mm. The “Diameter of inhibition zone” value ([3]; Salmonella typhi) was 26 mm, the viability at 0.078 µg/mL (lung cancer (A549); 0.078 μg/mL, FIG. 4, read-out: % cell viability) was 18.6% and the viability at 0.156 µg/mL (lung cancer (A549); 0.156 μg/mL, FIG. 4, read-out: % cell viability) was 13.2%. The viability at 0.312 µg/mL (lung cancer (A549); 0.312 μg/mL, FIG. 4, read-out: % cell viability) was 12.8%, the viability at 0.625 µg/mL (lung cancer (A549); 0.625 μg/mL, FIG. 4, read-out: % cell viability) was 12.3% and the viability at 1.25 µg/mL (lung cancer (A549); 1.25 μg/mL, FIG. 4, read-out: % cell viability) was 12.1%. The viability at 1.95 µg/mL (lung cancer (A549); 1.95 μg/mL, FIG. 5, read-out: % cell viability) was 18%, the viability at 2.5 µg/mL (lung cancer (A549); 2.5 μg/mL, FIG. 4, read-out: % cell viability) was 11.7% and the viability at 3.9 µg/mL (lung cancer (A549); 3.9 μg/mL, FIG. 5, read-out: % cell viability) was 16.7%. It also gave a viability at 5 µg/mL (lung cancer (A549); 5.0 μg/mL, FIG. 4, read-out: % cell viability) of 11%, a viability at 7.8 µg/mL (lung cancer (A549); 7.8 μg/mL, FIG. 5, read-out: % cell viability) of 12.5% and a viability at 10 µg/mL (lung cancer (A549); 10.0 μg/mL, FIG. 4, read-out: % cell viability) of 11.1%. It also gave a viability at 15.6 µg/mL (lung cancer (A549); 15.6 μg/mL, FIG. 5, read-out: % cell viability) of 11.8%, a viability at 31.25 µg/mL (lung cancer (A549); 31.25 μg/mL, FIG. 5, read-out: % cell viability) of 11.7% and a viability at 62.5 µg/mL (lung cancer (A549); 62.5 μg/mL, FIG. 5, read-out: % cell viability) of 11.4%. The viability at 125 µg/mL (lung cancer (A549); 125 μg/mL, FIG. 5, read-out: % cell viability) was 11.6%, the viability at 250 µg/mL (lung cancer (A549); 250 μg/mL, FIG. 5, read-out: % cell viability) was 11.6% and the viability at 0.078 µg/mL ([6]; HepG2, 72 h) was 34.4%. The viability at 1.95 µg/mL ([6]; HepG2, 72 h) was 14.8%, the viability at 0.156 µg/mL ([6]; HepG2, liver cancer cells, 0.156 μg/mL, MTT 72 h, FIG. 2) was 24.4% and the viability at 0.312 µg/mL ([6]; HepG2, liver cancer cells, 0.312 μg/mL, MTT 72 h, FIG. 2) was 28%. For the same compound, the viability at 0.625 µg/mL ([6]; HepG2, liver cancer cells, 0.625 μg/mL, MTT 72 h, FIG. 2) was 20.3%, the viability at 1.25 µg/mL ([6]; HepG2, liver cancer cells, 1.25 μg/mL, MTT 72 h, FIG. 2) was 20.2% and the viability at 2.5 µg/mL ([6]; HepG2, liver cancer cells, 2.5 μg/mL, MTT 72 h, FIG. 2) was 12.7%. For the same compound, the viability at 3.9 µg/mL ([6]; HepG2, liver cancer cells, 3.9 μg/mL, MTT 72 h, FIG. 3) was 12.2%, the viability at 5 µg/mL ([6]; HepG2, liver cancer cells, 5.0 μg/mL, MTT 72 h, FIG. 2) was 10.9% and the viability at 7.8 µg/mL ([6]; HepG2, liver cancer cells, 7.8 μg/mL, MTT 72 h, FIG. 3) was 9.57%. For the same compound, the viability at 10 µg/mL ([6]; HepG2, liver cancer cells, 10.0 μg/mL, MTT 72 h, FIG. 2) was 10.4%, the viability at 15.6 µg/mL ([6]; HepG2, liver cancer cells, 15.6 μg/mL, MTT 72 h, FIG. 3) was 8.96% and the viability at 31.25 µg/mL ([6]; HepG2, liver cancer cells, 31.25 μg/mL, MTT 72 h, FIG. 3) was 9.09%. For the same compound, the viability at 62.5 µg/mL ([6]; HepG2, liver cancer cells, 62.5 μg/mL, MTT 72 h, FIG. 3) was 8.86%, the viability at 125 µg/mL ([6]; HepG2, liver cancer cells, 125 μg/mL, MTT 72 h, FIG. 3) was 9.34% and the viability at 250 µg/mL ([6]; HepG2, liver cancer cells, 250 μg/mL, MTT 72 h, FIG. 3) was 9.38%.
